Assays:
Assay type in all cases: in vivo
[1] = test system: Abutilon theophrasti (ABUTH); test: Pre-emergence herbicidal action against ABUTH; settings: Dosage column 320 g/ha (title prints 3200 g/ha); scored visually after about 3 weeks; 100% = plants have died
Summary of the method: (§1)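 Dosages of 320 g/ha or less; pre-emergence; WP or EC in aqueous spray, 0.5% additive, 600 l/ha; greenhouse; visual % effect after ~3 wk relative to control pots.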

[2] = test system: Alopecurus myosuroides (ALOMY); test: Pre-emergence herbicidal action against ALOMY; settings: scored visually after about 3 weeks, 100% = plants have died
Summary of the method: as §1

[3] = test system: Amaranthus retroflexus (AMARE); test: Pre-emergence herbicidal action against AMARE; settings: visual scoring after about 3 weeks vs untreated controls
Summary of the method: as §1

Avena fatua (AVEFA) [4] = test: Pre-emergence herbicidal action against AVEFA; settings: 320 g/ha, visual scoring after about 3 weeks vs untreated controls
Summary of the method: as §1

[5] = test system: Echinochloa crus-galli (ECHCG); test: Pre-emergence herbicidal action against ECHCG
Summary of the method: as §1

Lolium rigidum (LOLRI) [6] = test: Pre-emergence herbicidal action against LOLRI
Summary of the method: as §1

[7] = test system: Matricaria inodora (MATIN); test: Pre-emergence herbicidal action against MATIN
Summary of the method: as §1

[8] = test system: Pharbitis purpurea (PHBPU); test: Pre-emergence herbicidal action against PHBPU
Summary of the method: as §1

[9] = test system: Polygonum convolvulus (POLCO); test: Pre-emergence herbicidal action against POLCO
Summary of the method: as §1

Setaria viridis (SETVI) [10] = test: Pre-emergence herbicidal action against SETVI
Summary of the method: as §1

[11] = test system: Verconica persica (VERPE); test: Pre-emergence herbicidal action against VERPE
Summary of the method: as §1

Viola tricolor (VIOTR) [12] = test: Pre-emergence herbicidal action against VIOTR
Summary of the method: as §1

[13] = test system: Alopecurus myosuroides (ALOMY); test: Post-emergence herbicidal action against ALOMY; settings: visual rating about 3 weeks after treatment vs untreated controls (100% = plants have died, 0% = like control plants)
Summary of the method: (§2)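 Post-emergence greenhouse spray, one-leaf stage, 600 l/ha water plus 0.5% additive; WP or EC formulations; application rates 320 g/ha or lower. Visual % damage vs untreated controls at ~3 weeks.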

[14] = test system: Amaranthus retroflexus (AMARE); test: Post-emergence herbicidal action against AMARE
Summary of the method: as §2

Avena fatua (AVEFA) [15] = test: Post-emergence herbicidal action against AVEFA; settings: visual rating about 3 weeks after treatment
Summary of the method: as §2

[16] = test system: Echinochloa crus-galli (ECHCG); test: Post-emergence herbicidal action against ECHCG
Summary of the method: as §2

Lolium rigidum (LOLRI) [17] = test: Post-emergence herbicidal action against LOLRI
Summary of the method: as §2

[18] = test system: Matricaria inodora (MATIN); test: Post-emergence herbicidal action against MATIN; settings: dosage 320 g/ha
Summary of the method: as §2

[19] = test system: Pharbitis purpurea (PHBPU); test: Post-emergence herbicidal action against PHBPU
Summary of the method: as §2

[20] = test system: Polygonum convolvulus (POLCO); test: Post-emergence herbicidal action against POLCO
Summary of the method: as §2

Setaria viridis (SETVI) [21] = test: Post-emergence herbicidal action against SETVI
Summary of the method: as §2

[22] = test system: Verconica persica (VERPE); test: Post-emergence herbicidal action against VERPE
Summary of the method: as §2

Viola tricolor (VIOTR) [23] = test: Post-emergence herbicidal action against VIOTR
Summary of the method: as §2

Zea mays (ZEAMX) = settings: crop plant compatibility, 80 g/ha, effect vs untreated controls
Summary of the method: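 Percent effect on the crop was judged by eye against untreated controls, where 0% means like control and 100% means dead plants. Plants had been sprayed post-emergence at the one-leaf stage and then kept under optimum greenhouse conditions for about 3 weeks.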

[24] = test system: Abutilon theophrasti (ABUTH); test: Post-emergence herbicidal action against ABUTH; settings: visual rating about 3 weeks after treatment vs untreated controls (100% = plants have died, 0% = like control plants)
Summary of the method: as §2

[25] = 80 g/ha, visual rating about 3 weeks after treatment vs untreated controls (100% = plants have died, 0% = like control plants)
[26] = 320 g/ha, visual rating about 3 weeks after treatment

Cc1cccnc1-n1nc(OCC(=O)O)c(Br)c1-c1ccc(F)nc1 [Example I-324]
90%: Pre-emergence action against MATIN in % ([7]; dosage 320 g/ha) | Pre-emergence action against PHBPU in % ([8]; dosage 320 g/ha) | Pre-emergence action against POLCO in % ([9]; dosage 80 g/ha) | Post-emergence action against AMARE in % [14, 25] | Post-emergence action against AMARE in % [14, 26] | Post-emergence action against ECHCG in % ([16]; dosage 80 g/ha) | Post-emergence action against ECHCG in % ([16]; dosage 320 g/ha) | Post-emergence action against LOLRI in % (Lolium rigidum (LOLRI) [17]; dosage 320 g/ha) | Post-emergence action against PHBPU in % ([19]; dosage 320 g/ha) | Post-emergence action against SETVI in % (Setaria viridis (SETVI) [21]; dosage 320 g/ha) | Post-emergence action against VERPE in % ([22]; 320 g/ha, VERPE) | Post-emergence action against VERPE in % ([22]; dosage 80 g/ha)
80%: Pre-emergence action against ABUTH [1] | Post-emergence action against MATIN in % [18] | Post-emergence action against POLCO in % ([20]; dosage 80 g/ha) | Post-emergence action against POLCO in % ([20]; dosage 320 g/ha) | Post-emergence action against SETVI in % (Setaria viridis (SETVI) [21]; dosage 80 g/ha) | Post-emergence action against VIOTR in % (Viola tricolor (VIOTR) [23]; 80 g/ha) | Post-emergence action against VIOTR in % (Viola tricolor (VIOTR) [23]; 320 g/ha)
0%: Post-emergence action against ZEAMX in % (Zea mays (ZEAMX))
100%: Pre-emergence action against ALOMY ([2]; 80 g/ha) | Pre-emergence action against ALOMY ([2]; 320 g/ha) | Pre-emergence action against AMARE in % ([3]; 80 g/ha) | Pre-emergence action against AMARE in % ([3]; 320 g/ha) | Pre-emergence action against AVEFA in % (Avena fatua (AVEFA) [4]) | Pre-emergence action against ECHCG in % ([5]; dosage 320 g/ha) | Pre-emergence action against LOLRI in % (Lolium rigidum (LOLRI) [6]; dosage 80 g/ha) | Pre-emergence action against LOLRI in % (Lolium rigidum (LOLRI) [6]; dosage 320 g/ha) | Pre-emergence action against POLCO in % ([9]; dosage 320 g/ha) | Pre-emergence action against SETVI in % (Setaria viridis (SETVI) [10]; dosage 320 g/ha) | Pre-emergence action against VERPE in % ([11]; dosage 320 g/ha) | Pre-emergence action against VIOTR in % (Viola tricolor (VIOTR) [12]; 320 g/ha, Viola tricolor) | Pre-emergence action against VIOTR in % (Viola tricolor (VIOTR) [12]; dosage 80 g/ha) | Post-emergence action against ALOMY in % ([13]; 320 g/ha) | Post-emergence action against AVEFA in % (Avena fatua (AVEFA) [15]; 80 g/ha) | Post-emergence action against AVEFA in % (Avena fatua (AVEFA) [15]; 320 g/ha)

COC(=O)[C@@H](C)Oc1nn(-c2nc(F)ccc2F)c(-c2cncc(F)c2)c1Br [Example I-191]
90%: Pre-emergence action against ABUTH [1] | Pre-emergence action against ALOMY ([2]; 320 g/ha) | Pre-emergence action against AMARE in % ([3]; 80 g/ha) | Pre-emergence action against ECHCG in % ([5]; dosage 80 g/ha) | Pre-emergence action against LOLRI in % (Lolium rigidum (LOLRI) [6]; dosage 80 g/ha) | Pre-emergence action against LOLRI in % (Lolium rigidum (LOLRI) [6]; dosage 320 g/ha) | Pre-emergence action against MATIN in % ([7]; dosage 80 g/ha) | Pre-emergence action against MATIN in % ([7]; dosage 320 g/ha) | Pre-emergence action against PHBPU in % ([8]; dosage 320 g/ha) | Pre-emergence action against POLCO in % ([9]; dosage 320 g/ha) | Post-emergence action against ALOMY in % ([13]; 320 g/ha) | Post-emergence action against AVEFA in % (Avena fatua (AVEFA) [15]; 320 g/ha) | Post-emergence action against LOLRI in % (Lolium rigidum (LOLRI) [17]; dosage 80 g/ha) | Post-emergence action against LOLRI in % (Lolium rigidum (LOLRI) [17]; dosage 320 g/ha) | Post-emergence action against PHBPU in % ([19]; dosage 80 g/ha) | Post-emergence action against VERPE in % ([22]; 320 g/ha, VERPE)
80%: Pre-emergence action against ALOMY ([2]; 80 g/ha) | Pre-emergence action against PHBPU in % ([8]; dosage 80 g/ha) | Pre-emergence action against POLCO in % ([9]; dosage 80 g/ha) | Pre-emergence action against SETVI in % (Setaria viridis (SETVI) [10]; dosage 80 g/ha) | Post-emergence action against ABUTH in % ([24]; 80 g/ha) | Post-emergence action against ABUTH in % ([24]; 320 g/ha) | Post-emergence action against ALOMY in % ([13]; 80 g/ha) | Post-emergence action against AMARE in % [14, 25] | Post-emergence action against AMARE in % [14, 26] | Post-emergence action against AVEFA in % (Avena fatua (AVEFA) [15]; 80 g/ha) | Post-emergence action against ECHCG in % ([16]; dosage 80 g/ha) | Post-emergence action against ECHCG in % ([16]; dosage 320 g/ha) | Post-emergence action against MATIN in % [18] | Post-emergence action against SETVI in % (Setaria viridis (SETVI) [21]; dosage 80 g/ha) | Post-emergence action against SETVI in % (Setaria viridis (SETVI) [21]; dosage 320 g/ha) | Post-emergence action against VERPE in % ([22]; dosage 80 g/ha) | Post-emergence action against VIOTR in % (Viola tricolor (VIOTR) [23]; 320 g/ha)
100%: Pre-emergence action against AMARE in % ([3]; 320 g/ha) | Pre-emergence action against AVEFA in % (Avena fatua (AVEFA) [4]) | Pre-emergence action against ECHCG in % ([5]; dosage 320 g/ha) | Pre-emergence action against SETVI in % (Setaria viridis (SETVI) [10]; dosage 320 g/ha) | Pre-emergence action against VERPE in % ([11]; dosage 80 g/ha) | Pre-emergence action against VERPE in % ([11]; dosage 320 g/ha) | Pre-emergence action against VIOTR in % (Viola tricolor (VIOTR) [12]; 320 g/ha, Viola tricolor) | Pre-emergence action against VIOTR in % (Viola tricolor (VIOTR) [12]; dosage 80 g/ha) | Post-emergence action against PHBPU in % ([19]; dosage 320 g/ha)

Reference: patent US20240041042A1, “1-(PYRIDYL)-5-AZINYLPYRAZOLE DERIVATIVES, AND THEIR USE FOR CONTROL OF UNDESIRED PLANT GROWTH” (Bayer Aktiengesellschaft, priority 2020, published 2024)
